Data as given in patent publication USRE46372E1, “Method for treating hearing loss” (The Regents of the University of Michigan, priority 2006, dated 2017).
Entries after “also recorded” stand apart in the source; their conditions may differ.

Experiments:
guinea pigs [1] = assay: Gentamicin-induced hair cell loss in guinea pigs (quantitative sensory hair cell assessment); format: in vivo, guinea pig
Protocol: In addition, outer hair cell loss and inner hair cell loss is measured both in the whole cochlea and in a trauma region of the cochlea. After treatment according to the method of the present disclosure, outer hair cell loss in the whole cochlea is less than 10%, and inner hair cell loss in the whole cochlea is less than 5%. Outer cell hair loss in the trauma region is less than 20%, while inner hair cell loss in the trauma region is less than 10%. […] To obtain those results, the composition is orally administered to guinea pigs for 10 to 16 days prior to first administration of the antibiotic, and the composition and antibiotic are administered again each day for forty days. The guinea pigs are then euthanized and the hair cells counted. Conversely, when the antibiotic is administered for forty days without administering the composition described herein in conjunction with the antibiotic, outer hair cell loss approaches 80%, while inner hair cell loss is about 8%.
The method of treating side effects of antibiotic treatment with the composition of the present disclosure is again performed on guinea pigs (normal hearing, male, pigmented). Six guinea pigs are subject to antibiotic administration and treatment with the composition of the present disclosure. The guinea pigs were fed with a chow containing the composition including beta-carotene, vitamin C, vitamin E, and magnesium in the amounts shown in Table 3 for 10 days prior to administration of a first dosage of gentamicin antibiotic, and were fed the same chow every day for 41 days. […] Fourteen days following cessation of antibiotic treatment, the guinea pigs were euthanized, left cochleae harvested, and quantitative sensory hair cell assessments were performed. […]
Six guinea pigs are subject to antibiotic administration in the absence of treatment with the composition of the present disclosure. […] Fourteen days following cessation of antibiotic treatment, the guinea pigs were euthanized, left cochleae harvested, and quantitative sensory hair cell assessments were performed.

guinea pigs [2] = assay: Noise-induced hearing loss in guinea pigs, ABR threshold shift; format: in vivo, guinea pig; conditions: for permanent hearing loss 10 days post noise (FIG. 1), protection in words: Trolox 100 mg/kg once daily or 50 mg/kg twice daily, betahistine 30 mg/kg once daily or 18 mg/kg, versus saline control; for threshold shift, as averaged across all frequencies: ABR at 4, 8, 16 kHz, 10 days after 120 dB SPL Octave Band Noise centered at 4 kHz for 5 h, saline control about 45
guinea pigs [3] = assay: Missing hair cells (hair cell counts, cytocochleograms) after noise exposure in guinea pigs; conditions: after 120 dB SPL noise for 5 h, in words
Protocol: After ABR testing, the guinea pigs are deeply anesthetized and decapitated. Temporal bones are quickly removed, dissected open and fixed with 4% paraformaldehyde. The following day, an otic capsule, lateral wall, and tectorial membrane are removed, and a bony modiolus is carefully detached. Organ of Corti tissue, attached to the modiolus, is permeabilized with 0.3% Triton-X and incubated with rhodamine phalloidin diluted 1:100 in phosphate buffered saline (30 min). After washing the tissues, individual turns from the organ of Corti are dissected, mounted on microscope slides, and examined and photographed using a Leica DMRB epiflourescence microscope. Hair cell counts are conducted, and cytocochleograms are prepared as known in the art.
Guinea pigs are treated with other compositions in order to compare the efficacy of the composition of the present disclosure with the other compositions. […] The guinea pigs are subjected to the same ABR testing, and the components of the ear are dissected, as described above in the Example to provide information on threshold shift and hair cell loss.
Eight groups of guinea pigs (where the number of guinea pigs ranges from 5 guinea pigs to 10 guinea pigs per group) are respectively treated with other compositions to compare the efficacy of the “ACEMg” composition of the present disclosure with the other compositions. […] The eight groups of guinea pigs are exposed to the same ABR testing, and the components of the ear are dissected as previously described in the Example to provide information on threshold shift and outer hair cell loss.

[4] = in words; cited from earlier work
[5] = in words; cited from earlier work; remark: listed apart in the source
[6] = antibiotic administered without the composition

Row | Compound | permanent hearing loss 10 days post noise (FIG. 1), protection in words (guinea pigs [2]) | threshold shift, as averaged across all frequencies (guinea pigs [2]) | sensory cell death by hair cell counts, whole cochlea and trauma region, compared to the saline control (guinea pigs [3]) | other results
1 | gentamicin |  |  |  | inner hair cell loss (guinea pigs [1]; [6]): about 8%; outer hair cell loss (guinea pigs [1]; [6]): ~80%; ototoxic effect on hair cells (guinea pigs [1]; gentamicin 140 mg/kg s.c. once a day for 16 days, no composition, in words): dramatic cell death of outer hair cells
2 | CNCCc1ccccn1 [betahistine] | approximately the same amount of protection as those treated with vitamin E; also recorded: does not exhibit an additive effect |  |  | 
3 | CN(CC(=O)O)C(=N)N [creatine] |  | about 34 decibels | reduced sensory cell death | 
4 | O=S(=O)([O-])[O-].[Mg+2] [magnesium, magnesium sulfate] |  | about 41 decibels | reduced sensory cell death | sensory cell death by hair cell counts, whole cochlea and trauma region, compared to the saline control (guinea pigs [3]; listed as Mg): significantly reduced sensory cell death
5 | Cc1c(C)c2c(c(C)c1O)CCC(C)(C(=O)O)O2 (stereo not drawn) | less permanent hearing loss than control animals |  |  | 
6 | Oc1ncnc2[nH]ncc12 [allopurinol] |  |  |  | reducing gentamicin-induced ototoxicity [4]: ineffective; reducing noise-induced hearing loss [5]: effective
